Measurements from patent US7696201B2, “Modulators of muscarinic receptors” (Vertex Pharmaceuticals Incorporated, priority 2006, dated 2010).

Key:
Assay type in all cases: cell-based
M1 muscarinic receptor = target: T1, M1 muscarinic receptor (Homo sapiens, UniProt P11229); assay: Functional mobilization of intracellular calcium (FLIPR), M1-CHO cells; conditions: for Emax: 100% efficacy is the maximum response obtained with the Carbachol control; for M1 Activity: CHO cells expressing M1, calcium mobilization
T1 construct: expressed in transfected cells; host or cells: CHO (M1-CHO)
T1 sequence (P11229 1-460): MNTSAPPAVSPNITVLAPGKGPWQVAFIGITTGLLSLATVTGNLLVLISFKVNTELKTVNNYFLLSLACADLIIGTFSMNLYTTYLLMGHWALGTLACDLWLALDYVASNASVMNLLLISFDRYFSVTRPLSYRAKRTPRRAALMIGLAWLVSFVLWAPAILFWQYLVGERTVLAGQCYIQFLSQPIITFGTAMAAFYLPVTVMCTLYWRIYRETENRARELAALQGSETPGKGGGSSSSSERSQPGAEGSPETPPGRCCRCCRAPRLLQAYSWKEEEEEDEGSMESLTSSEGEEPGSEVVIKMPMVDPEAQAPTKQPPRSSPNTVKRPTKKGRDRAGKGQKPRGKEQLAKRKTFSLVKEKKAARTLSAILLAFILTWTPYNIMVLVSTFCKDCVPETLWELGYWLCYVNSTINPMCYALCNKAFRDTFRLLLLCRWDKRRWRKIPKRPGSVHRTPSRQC
Method: (§1) Functional Mobilization of Intracellular Calcium to Determine Muscarinic Receptor Activity:
(§2) CHO cells expressing muscarinic receptors (M1 to M5) are grown as monolayers in tissue culture flasks at 37° C. in a humidified atmosphere containing 5% CO2 and passaged every 3-5 days. The growth media is Dulbecco's modified eagles medium (DMEM, Gibco Cat# 12430-054), containing 25 mM Hepes and supplemented with Fetal Bovine Serum (Hyclone, cat# SH30071.03), 0.1 mM of MEM non-essential amino acids (GIBCO, Cat# 11140-050), 1 mM MEM Sodium Pyruvate (GIBCO Cat# 11360-070) and 100 units/ml of Penicillin G and 100 μg/ml of Streptomycin (GIBCO Cat# 15140-122). The recombinant muscarinic receptor cell lines are grown under antibiotic pressure with media containing 25 μg/ml zeocin and 500 μg/ml G418 (M1-CHO), 4 μg/ml puromycin, 50 μg/ml zeocin and 2.5 μg/ml blasticidin (M2 and M4-CHO) or 50 μg/ml zeocin and 4 μg/ml puromycin (M3 and M5-CHO).
(§3) Cells are harvested at 80-90% confluence using Versene (GIBCO Cat# 15040-066), collected by centrifugation and seeded 18-24 hours prior to running the calcium assay at a density of 5,000-10,000 cells/well in […], clear-bottomed 384-well plates (BD Biocoat, poly-D-lysine, Cat#356663). The day of the experiment, the cells are washed with a plate washer (Bioteck Instruments, ELX 405) using Bath 1 buffer (140-mM NaCl, 4.5-mM KCl, 2-mM CaCl2, 1-mM MgCl2, 10-mM Hepes-Na, 10-mM Glucose, pH 7.4, with NaOH) containing 1 mM Probenecid. Next, the calcium dye Fluo-3 (25 μl/well of Fluo-3 AM at 4 μM, Molecular Probes F-1241, in Bath 1 buffer containing 1 mM Probenecid) is added to the 25 μl of Bath 1 remaining in each well after the plate wash and the dye is loaded at 37° C. in the tissue culture incubator for 60-90 min. The fluorescent dye is removed using the plate washer with Bath 1 containing 1 mM Probenecid, leaving 25 μl/well of this solution after the wash. Alternatively, cells can be loaded with the calcium indicator from Molecular Devices (Calcium 3 Assay Reagents, Cat # R7181) adding 5 μl of a 5× solution dye in Bath 1 containing 1 mM Probenecid (10 ml per dye flask cat# R7182 to generate a solution 20×) to 20 μl of the same buffer. After loading for 60 min, the experiment can be run without having to remove the dye.
(§4) Compounds are prepared at a 2× fold concentration in a 96-well plate (round bottom, Costar Corning cat# 3656), by reconstituting the pre-spotted compounds in bath 1 containing 1 mM probenecid. The final concentration DMSO is 0.5%, and the amount of DMSO is normalized across the assay plate. To determine an agonist action of the compounds on muscarinic receptors, the reconstituted compounds are added (25 μl compound/well) to the cell assay plate (containing 25 μl/well) using the multi-channel robotic system of the FLIPR 3 Instrument (Molecular Devices, Sunnyvale, Calif.). To determine a functional inhibitory action of the compounds on muscarinic receptors, the reconstituted compounds are added (25 μl compound/well) to the assay plate and pre-incubated for 15 min prior to adding 25 μl of Carbachol at 3× the EC80 for each muscarinic subtype. Alternatively, the compounds can be co-applied simultaneously with the agonist. In both assay modes, the fluorescence is recorded for 60 sec (excitation wavelength is […] and emission wavelength 540 nm) using the FLIPR 3 instrument.
(§5) The potency, efficacy and selectivity of the muscarinic compounds were evaluated by screening the compound activity across the whole family (M1 to M5 cells). Compounds were also screened for activity on other proteins such as other GPCRs and ion channels to determine selectivity on M4 receptors.
(§6) Examples of activities and efficacies of the muscarinic compounds of formulae (I, Ia, Ib, Ic, and Id) on modulating M1 and M4 receptors are shown below in Table 3. […]

M4 muscarinic receptor = target: T2, M4 muscarinic receptor (Homo sapiens, UniProt P08173); assay: Functional mobilization of intracellular calcium (FLIPR), M4-CHO cells; conditions: for Emax: 100% efficacy is the maximum response obtained with the Carbachol control; for M4 Activity: CHO cells expressing M4, calcium mobilization
T2 construct: expressed in transfected cells; host or cells: CHO (M4-CHO)
T2 sequence (P08173 1-479): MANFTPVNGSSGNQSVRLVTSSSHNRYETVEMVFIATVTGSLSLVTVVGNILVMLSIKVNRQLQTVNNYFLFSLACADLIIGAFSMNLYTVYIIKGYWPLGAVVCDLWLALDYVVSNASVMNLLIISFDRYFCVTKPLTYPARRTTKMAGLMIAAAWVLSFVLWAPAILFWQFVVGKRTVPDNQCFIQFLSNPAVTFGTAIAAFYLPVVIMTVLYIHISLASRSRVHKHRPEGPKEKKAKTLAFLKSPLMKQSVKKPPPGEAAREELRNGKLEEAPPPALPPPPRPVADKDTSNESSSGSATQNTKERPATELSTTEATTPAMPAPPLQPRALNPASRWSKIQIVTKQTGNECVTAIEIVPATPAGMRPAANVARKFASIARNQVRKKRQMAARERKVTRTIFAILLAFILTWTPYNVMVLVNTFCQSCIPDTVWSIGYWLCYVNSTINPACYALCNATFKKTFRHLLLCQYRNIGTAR
Method: as §1, §2, §3, §4, §5, §6

M2 muscarinic receptor = target: T3, M2 muscarinic receptor (Homo sapiens, UniProt P08172); assay: Functional mobilization of intracellular calcium (FLIPR), M2-CHO cells; conditions: for Emax: 100% efficacy is the maximum response obtained with the Carbachol control; for M2 Activity: CHO cells expressing M2, calcium mobilization
T3 construct: expressed in transfected cells; host or cells: CHO (M2-CHO)
T3 sequence (P08172 1-466): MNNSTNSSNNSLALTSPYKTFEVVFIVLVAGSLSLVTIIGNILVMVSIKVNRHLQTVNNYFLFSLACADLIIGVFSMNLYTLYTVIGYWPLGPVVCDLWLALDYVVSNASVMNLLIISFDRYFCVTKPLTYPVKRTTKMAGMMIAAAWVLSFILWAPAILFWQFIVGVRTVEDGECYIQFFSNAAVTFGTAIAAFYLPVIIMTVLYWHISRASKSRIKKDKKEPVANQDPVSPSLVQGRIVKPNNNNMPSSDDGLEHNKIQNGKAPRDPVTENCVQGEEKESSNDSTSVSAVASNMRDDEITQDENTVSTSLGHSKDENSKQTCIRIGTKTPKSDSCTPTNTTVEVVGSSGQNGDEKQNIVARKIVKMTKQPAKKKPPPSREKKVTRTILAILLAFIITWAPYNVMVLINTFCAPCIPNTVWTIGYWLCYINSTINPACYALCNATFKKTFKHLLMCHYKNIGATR
Method: as §1, §2, §3, §4, §5, §6

M3 muscarinic receptor = target: T4, M3 muscarinic receptor (Homo sapiens, UniProt P20309); assay: Functional mobilization of intracellular calcium (FLIPR), M3-CHO cells; conditions: for Emax: 100% efficacy is the maximum response obtained with the Carbachol control; for M3 Activity: CHO cells expressing M3, calcium mobilization
T4 construct: expressed in transfected cells; host or cells: CHO (M3-CHO)
T4 sequence (P20309 whole entry): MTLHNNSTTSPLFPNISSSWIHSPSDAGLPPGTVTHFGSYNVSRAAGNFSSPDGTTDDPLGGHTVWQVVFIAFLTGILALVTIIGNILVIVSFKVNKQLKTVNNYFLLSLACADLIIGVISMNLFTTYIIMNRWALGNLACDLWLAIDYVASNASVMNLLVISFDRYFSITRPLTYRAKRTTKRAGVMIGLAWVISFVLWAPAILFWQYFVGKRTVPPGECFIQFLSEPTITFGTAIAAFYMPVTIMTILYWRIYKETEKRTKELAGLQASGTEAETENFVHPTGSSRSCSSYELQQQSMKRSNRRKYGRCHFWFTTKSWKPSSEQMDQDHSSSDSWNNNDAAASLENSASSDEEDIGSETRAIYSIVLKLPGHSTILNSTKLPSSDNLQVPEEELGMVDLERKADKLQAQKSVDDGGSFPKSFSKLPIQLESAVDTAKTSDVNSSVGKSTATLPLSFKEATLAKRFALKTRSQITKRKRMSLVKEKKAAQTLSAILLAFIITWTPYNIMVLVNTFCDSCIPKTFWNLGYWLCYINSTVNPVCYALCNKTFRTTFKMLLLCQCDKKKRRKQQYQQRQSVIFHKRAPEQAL
Method: as §1, §2, §3, §4, §5, §6

For `CC(C)CCN1CCC2(CC1)OC(=O)Nc1ccccc12` [Compound 76, 1′-isopentylspiro[benzo[d][1,3]oxazine-4,4′-piperidin]-2(1H)-one], the Emax (M1 muscarinic receptor) was 25 to 100%, the “M1 Activity” value (M1 muscarinic receptor) was “+++ (activity was measured to be less than 2.0 μM)” and the Emax (M4 muscarinic receptor) was 25 to 100%. For the same molecule, the “M4 Activity” value (M4 muscarinic receptor) was “+++ (activity was measured to be less than 2.0 μM)”, the Emax (M2 muscarinic receptor) was 25 to 100% and the “M2 Activity” value (M2 muscarinic receptor) was “+ (activity was measured to be greater than 5.0 μM)”. For the same molecule, the Emax (M3 muscarinic receptor) was < 25% and the “M3 Activity” value (M3 muscarinic receptor) was “+ (activity was measured to be greater than 5.0 μM)”.

With `O=C1Nc2ccccc2C2(CCN(CC3CCCOC3)CC2)O1` (stereo not drawn) [Compound 11] the Emax (M1 muscarinic receptor) was 25 to 100%, the “M1 Activity” value (M1 muscarinic receptor) was “+++ (activity was measured to be less than 2.0 μM)” and the Emax (M4 muscarinic receptor) was 25 to 100%. For the same molecule, the “M4 Activity” value (M4 muscarinic receptor) was “+++ (activity was measured to be less than 2.0 μM)”, the Emax (M2 muscarinic receptor) was 25 to 100% and the “M2 Activity” value (M2 muscarinic receptor) was “+ (activity was measured to be greater than 5.0 μM)”. For the same molecule, the Emax (M3 muscarinic receptor) was < 25% and the “M3 Activity” value (M3 muscarinic receptor) was “+ (activity was measured to be greater than 5.0 μM)”.

`O=C1Nc2ccccc2C2(CCN(CC3CCCCC3)CC2)O1` [Compound 27] was tested, and the Emax (M1 muscarinic receptor) was 25 to 100%, the “M1 Activity” value (M1 muscarinic receptor) was “+++ (activity was measured to be less than 2.0 μM)” and the Emax (M4 muscarinic receptor) was 25 to 100%. The “M4 Activity” value (M4 muscarinic receptor) was “+++ (activity was measured to be less than 2.0 μM)”, the Emax (M2 muscarinic receptor) was 25 to 100% and the “M2 Activity” value (M2 muscarinic receptor) was “++ (activity was measured to be from 2.0 μM to 5.0 μM)”. The Emax (M3 muscarinic receptor) was < 25% and the “M3 Activity” value (M3 muscarinic receptor) was “+ (activity was measured to be greater than 5.0 μM)”.

`O=C1Nc2ccccc2C2(CCN(C3CC4CCC(C4)C3)CC2)O1` (stereo not drawn) [Compound 67, 1′-(bicyclo[3.2.1]octan-3-yl)spiro[benzo[d][1,3]oxazine-4,4′-piperidin]-2(1H)-one] was tested, and the Emax (M1 muscarinic receptor) was 25 to 100%, the “M1 Activity” value (M1 muscarinic receptor) was “+++ (activity was measured to be less than 2.0 μM)” and the Emax (M4 muscarinic receptor) was 25 to 100%. For the same molecule, the “M4 Activity” value (M4 muscarinic receptor) was “+++ (activity was measured to be less than 2.0 μM)”, the Emax (M2 muscarinic receptor) was 25 to 100% and the “M2 Activity” value (M2 muscarinic receptor) was “+++ (activity was measured to be less than 2.0 μM)”. For the same molecule, the Emax (M3 muscarinic receptor) was 25 to 100% and the “M3 Activity” value (M3 muscarinic receptor) was “+ (activity was measured to be greater than 5.0 μM)”.

In the case of `O=C1CCC(N2CCC3(CC2)OC(=O)Nc2ccccc23)CC1` [Compound 64, 1′-(4-oxocyclohexyl)spiro[benzo[d][1,3]oxazine-4,4′-piperidin]-2(1H)-one], the Emax (M1 muscarinic receptor) was 25 to 100%, the “M1 Activity” value (M1 muscarinic receptor) was “++ (activity was measured to be from 2.0 μM to 5.0 μM)” and the Emax (M4 muscarinic receptor) was 25 to 100%. For the same molecule, the “M4 Activity” value (M4 muscarinic receptor) was “++ (activity was measured to be from 2.0 μM to 5.0 μM)”, the Emax (M2 muscarinic receptor) was 25 to 100% and the “M2 Activity” value (M2 muscarinic receptor) was “+ (activity was measured to be greater than 5.0 μM)”. For the same molecule, the Emax (M3 muscarinic receptor) was < 25% and the “M3 Activity” value (M3 muscarinic receptor) was “+ (activity was measured to be greater than 5.0 μM)”.

With `CCC(C)(C)C1CCC(N2CCC3(CC2)OC(=O)Nc2ccccc23)CC1` (stereo not drawn) [Compound 35] the Emax (M1 muscarinic receptor) was 25 to 100%, the “M1 Activity” value (M1 muscarinic receptor) was “+++ (activity was measured to be less than 2.0 μM)” and the Emax (M4 muscarinic receptor) was < 25%. The “M4 Activity” value (M4 muscarinic receptor) was “+ (activity was measured to be greater than 5.0 μM)”, the Emax (M2 muscarinic receptor) was < 25% and the “M2 Activity” value (M2 muscarinic receptor) was “+ (activity was measured to be greater than 5.0 μM)”. The Emax (M3 muscarinic receptor) was < 25% and the “M3 Activity” value (M3 muscarinic receptor) was “+ (activity was measured to be greater than 5.0 μM)”.
